In patent US11872228B2, “Pharmaceutical composition containing thiamine derivative for prevention or treatment of sepsis” (KYUNGPOOK NATIONAL UNIVERSITY INDUSTRY-ACADEMIC COOPERATION …, priority 2021, dated 2024):

Legend:
Type in all cases: cell-based, C57BL/6J male mice
[1] = system: CD86; assay: CD86 expression in CD11c+ dendritic cells by flow cytometry; settings: 50 μM, 100 ng/mL LPS
[2] = system: TNFα; assay: Inhibition of TNFα expression in LPS-activated dendritic cells (ELISA of supernatants); settings: dendritic cells; for TNFα (pg/mL): 100 ng/mL LPS 18 h
Procedure: (§1) The dendritic cells at 1×10^6 cells/mL were treated with benfotiamine and fursultiamine at different concentrations of 0, 1, 10, and 100 and allithiamine at different concentrations of 0, 1, and 10 μM.
Thereafter, the dendritic cells were activated with 100 ng/mL LPS for 18 hours.

[3] = system: CD40; assay: CD40 expression in CD11c+ dendritic cells by flow cytometry
Procedure: as §1
(§2) The dendritic cells were measured for CD40 and CD86 in CD11c+ cells by flow cytometry, and the results are shown in FIGS. 6A and 6B and Tables 5 and 6.

[4] = system: IL-1β; assay: Inhibition of IL-1β expression in LPS-primed, ATP-treated dendritic cells; settings: for IL-1β: LPS priming + 5 mM ATP
Procedure: Bone marrow was extracted from the legs of six- to eight-week old C57BL/6J male mice, and subjected to red blood cell (RBC) lysis, followed by differentiation into dendritic cells in RPMI 1640 medium (10% fetal bovine serum (FBS) and 1% penicillin-streptomycin) along with 20 ng/ml granulocyte-macrophage colony-stimulating factor (GM-CSF) for six days. The dendritic cells at 1×10^6 cells/mL were treated with benfotiamine and fursultiamine at different concentrations of 0, 1, 10, and 100 and allithiamine at different concentrations of 0, 1, and 10 μM.
The dendritic cells were subjected to pro-IL1b priming by the treatment with 500 ng/mL LPS for 3 hours, and then treated with benfotiamine at 0, 10, 50, or 100 and fursultiamine at 0, 10, 50, or 100 μM, for 15 minutes. Then, pro-IL1b was converted into IL-1β through pro-IL1b cleavage, followed by 5 mM ATP treatment for inducing inflammasome formation.

[5] = system: TNFα; assay: Inhibition of TNFα expression in LPS-activated dendritic cells (ELISA of supernatants)
[6] = system: CD86; assay: CD86 expression in CD11c+ dendritic cells by flow cytometry
Procedure: as §1, §2

[7] = 1 μM, dendritic cells, 100 ng/mL LPS
[8] = 10 μM, dendritic cells, 100 ng/mL LPS
[9] = 100 μM, dendritic cells not stimulated by LPS
[10] = 100 μM, dendritic cells, 100 ng/mL LPS

Structure (SMILES): C/C(=C(\CCOP(=O)(O)O)SC(=O)c1ccccc1)N(C=O)Cc1cnc(C)nc1N [Benfotiamine, benfotiamine]
- CD86 (Mean fluorescence intensity; MFI) [1]: 2,448 MFI
- TNFα (pg/mL) ([2]; 1 μM): 4,909.05 pg/mL
- TNFα (pg/mL) ([2]; 10 μM): 4,614.42 pg/mL
- TNFα (pg/mL) ([2]; 100 μM): 4,696.43 pg/mL
- Inhibition of the TNFα expression increased by LPS (in words) ([2]; up to 100 μM): could not inhibit
- CD40 (Mean fluorescence intensity; MFI) [3, 7]: 2,134 MFI
- CD40 (Mean fluorescence intensity; MFI) [3, 8]: 1,975 MFI
- CD40 (Mean fluorescence intensity; MFI) [3, 9]: 248 MFI
- CD40 (Mean fluorescence intensity; MFI) [3, 10]: 1,803 MFI
- Inhibition of the CD40 expression increased by LPS (in words) ([3]; dendritic cells, up to 100 μM): could not inhibit
- IL-1β ([4]; 10 μM): 912.2951 pg/mL
- IL-1β ([4]; 50 μM): 914.9398 pg/mL
- IL-1β ([4]; 100 μM): 914.2512 pg/mL
- Inhibition of the IL-1β expression increased by LPS (in words) ([4]; up to 100 μM): could not inhibit
- TNFα (pg/mL) ([5]; 50 μM, dendritic cells, 100 ng/mL LPS 18 h): 4,806.97 pg/mL
- TNFα [5, 9]: 84.82 pg/mL
- CD86 (Mean fluorescence intensity; MFI) [6, 7]: 2,734 MFI
- CD86 (Mean fluorescence intensity; MFI) [6, 8]: 2,198 MFI
- CD86 (Mean fluorescence intensity; MFI) [6, 9]: 382 MFI
- CD86 (Mean fluorescence intensity; MFI) [6, 10]: 430 MFI
- Inhibition of the CD86 expression increased by LPS (in words) ([6]; dendritic cells, up to 100 μM): could not inhibit
